Experimental data as given in ChEMBL document CHEMBL1128109, “Phenolic replacements for cysteine in farnesyl transferase inhibitors based on CVFM” (Bioorg Med Chem Lett, 1995).

target: T1, Protein farnesyltransferase (Rattus norvegicus, UniProt Q02293+Q04631); test: Inhibition of farnesyl transferase; type: protein-complex assay

Compared with `CSCC[C@H](NC(=O)[C@H](Cc1ccccc1)NC(=O)[C@@H](NCc1ncccc1O)C(C)C)C(=O)O`, `CSCC[C@H](NC(=O)[C@H](Cc1ccccc1)NC(=O)[C@@H](NCc1ccccc1O)C(C)C)C(=O)O` is 12-fold lower in IC50: 30 µM for the first, 2.4 µM for the second.

First: CC(C)[C@H](NCc1cc(F)ccc1O)C(=O)N[C@@H](Cc1ccccc1)C(=O)N[C@@H](CC[S+](C)[O-])C(=O)O (some centres undefined)
Second: CSCC[C@H](NC(=O)[C@H](Cc1ccccc1)NC(=O)[C@@H](NCc1cc(Br)ccc1O)C(C)C)C(=O)O
The IC50 of the first is 3.6-fold higher: 1.6 µM for the first, 0.45 µM for the second. The second is the more potent here.

Compared with `CSCC[C@H](NC(=O)[C@H](Cc1ccccc1)NC(=O)[C@@H](NCc1ccccc1)C(C)C)C(=O)O`, `CSCC[C@H](NC(=O)[C@H](Cc1ccccc1)NC(=O)[C@@H](NCc1cccc(O)c1)C(C)C)C(=O)O` is 1.6-fold lower in IC50: 21 µM for the first, 13 µM for the second.

Compared with `CC[C@H](C)[C@H](NC(=O)[C@@H](NC(=O)[C@@H](N)CO)C(C)C)C(=O)N[C@@H](CCSC)C(=O)O`, `CC[C@H](C)[C@H](NC(=O)[C@@H](NC(=O)[C@@H](N)CS)C(C)C)C(=O)N[C@@H](CCSC)C(=O)O` is lower in IC50: over 100 µM for the first, 0.25 µM for the second.

Going from `CSCC[C@H](NC(=O)[C@H](Cc1ccccc1)NC(=O)[C@@H](NCc1cc(Cl)ccc1O)C(C)C)C(=O)O` to `CSCC[C@H](NC(=O)[C@H](Cc1ccccc1)NC(=O)[C@@H](NCc1cc(O)ccc1O)C(C)C)C(=O)O`, the IC50 rises from 0.5 µM to 24 µM (48-fold). The first is the more potent here.

First: COCCOCOc1ccc(C(F)(F)F)cc1CN[C@H](C(=O)N[C@@H](Cc1ccccc1)C(=O)N[C@@H](CCSC)C(=O)O)C(C)C
Second: COCCOCOc1ccc(Cl)cc1CN[C@H](C(=O)N[C@@H](Cc1ccccc1)C(=O)N[C@@H](CCSC)C(=O)O)C(C)C
The IC50 of the first is 21-fold higher: 16 µM for the first, 0.76 µM for the second.

Compared with `CSCC[C@H](NC(=O)[C@H](Cc1ccccc1)NC(=O)[C@@H](NCc1cccc(OC/C=C(\C)CC/C=C(\C)CCC=C(C)C)c1O)C(C)C)C(=O)O`, `CSCC[C@H](NC(=O)[C@H](Cc1ccccc1)NC(=O)[C@@H](NCc1cccc(F)c1O)C(C)C)C(=O)O` is 28-fold lower in IC50: 70 µM for the first, 2.5 µM for the second.

Going from `CCCOC(=O)c1ccc(O)c(CN[C@H](C(=O)N[C@@H](Cc2ccccc2)C(=O)N[C@@H](CCSC)C(=O)O)C(C)C)c1` to `COc1ccc(O)c(CN[C@H](C(=O)N[C@@H](Cc2ccccc2)C(=O)N[C@@H](CCSC)C(=O)O)C(C)C)c1`, the IC50 falls from about 100 µM to 3.8 µM (26-fold).

Compared with `CSCC[C@H](NC(=O)[C@H](Cc1ccccc1)NC(=O)[C@@H](NCc1ccccc1SC(c1ccccc1)c1ccccc1)C(C)C)C(=O)O`, `CSCC[C@H](NC(=O)[C@H](Cc1ccccc1)NC(=O)[C@@H](NCc1ccccc1S)C(C)C)C(=O)O` is 4.5-fold lower in IC50: about 100 µM for the first, 22 µM for the second.

Compared with `CSCC[C@H](NC(=O)[C@H](Cc1ccccc1)NC(=O)[C@@H](NCc1cc(C(F)(F)F)ccc1O)C(C)C)C(=O)O`, `CSCC[C@H](NC(=O)[C@H](Cc1ccccc1)NC(=O)[C@@H](NCc1ccc(O)cc1)C(C)C)C(=O)O` is 8.1-fold higher in IC50: 2.1 µM for the first, 17 µM for the second. The first is the more potent here.

First: CSCC[C@H](NC(=O)[C@H](Cc1ccccc1)NC(=O)[C@@H](NCc1c(O)ccc2ccccc12)C(C)C)C(=O)O
Second: CSCC[C@H](NC(=O)[C@H](Cc1ccccc1)NC(=O)[C@@H](NC(c1ncccc1O)c1ncccc1O)C(C)C)C(=O)O
The IC50 of the first is 4.8-fold lower: 6.3 µM for the first, 30 µM for the second. The first is the more potent here.

In the case of `CSCC[C@H](NC(=O)[C@H](Cc1ccccc1)NC[C@@H](NCc1cc(Cl)ccc1O)C(C)C)C(=O)O`, the IC50 is reported as 2.3 µM.

target: T1, Protein farnesyltransferase; test: Inhibitory activity against Farnesyl transferase; 8.5-27.0; type: protein-complex assay

`CSCC[C@H](NC(=O)[C@H](Cc1ccccc1)NC(=O)[C@@H](NCc1cc(C(=O)O)ccc1O)C(C)C)C(=O)O` showed an IC50 of 8.5 µM.
